One data set deals with L-6 cells. Briefly: Cytotoxicity, same Alamar Blue assay with L-6 cells. It is filed as cell-based. The note with it: Rattus norvegicus. Here is the method: Serial drug dilutions are added to the wells. Then 50 µl of trypanosome suspension (T. b. rhodesiense STIB 900) is added to each well and the plate incubated at 37°C under a 5% CO2 atmosphere for 72 hours. Alamar Blue (10 µl) is then added to each well and incubation continued for a further 2-4 hours. […] Fluorescence development is expressed as percentage of the control, and IC50 values determined. Cytotoxicity is assessed using the same assay and L-6 cells.
For orientation: Alamar Blue is a resazurin reagent that responds to reducing activity.

The test system of another data set is P. berghei ANKA strain. Briefly: in vivo screening against Plasmodium berghei in mice. As to conditions: for MSD P. berghei: mean survival day; for Activity %: percent reduction of parasitemia vs control. How it is done: • Method of infection of animals: • Male mice (Fü albino; specific pathogen free) weighing 20± 2g are infected intravenously with 2x10^7 P. berghei ANKA strain-infected erythrocytes from donor mice on day 0 of the experiment. […] Parasitemia is determined microscopically by counting 1000 red blood cells. • For low parasitemias (<1%) 2000 rbc's have to be counted. The difference between the mean value for the control group (taken as 100%) and that for each experimental group is calculated and expressed as percent reduction (=activity). • The mean survival day (MSD, in days) is recorded as well as observations concerning side effects of the drug.

The subject of data set [1] is K1 strain of P. falciparum (resistant to chloroquine and pyrimethamine). Briefly: in vitro screening against Plasmodium falciparum, [3H]-hypoxanthine incorporation assay. It counts as cell-based. As to conditions: read-out: IC50 P.falc. Here is the method:
Antiplasmodial activity is determined using the K1 strain of P. falciparum (resistant to chloroquine and pyrimethamine). A modification of the [^3H]-hypoxanthine incorporation assay is used [Matile H, Pink JRL. in: Lefkovits I. and Pernis B. (Eds.). Immunological Methods, Academic Press, San Diego, 1990, 221-234.]. Briefly, infected human red blood cells in RPMI 1640 medium with 5% Albumax are exposed to serial drug dilutions in microtiter plates for 48 hours. Viability is assessed by measuring the incorporation of [^3H]-hypoxanthine by liquid scintillation counting 24 hours after the addition of the radiolabel. The counts are expressed as percentage of the control cultures, sigmoidal inhibition curves are drawn and IC50 values calculated.

The test system of data set [2] is T. b. rhodesiense STIB 900. Description: in vitro screening against Trypanosoma brucei rhodesiense, Alamar Blue assay. It is filed as cell-based. As to conditions: read-out: IC50 T.rho. Here is the method: Minimum Essential Medium (50 µl) supplemented according to Baltz et al. [Baltz T, Baltz D, Giroud C, Crockett J. EMBO J., 1985, 4: 1273-1277] with 2-mercaptoethanol and 15% heat-inactivated horse serum is added to each well of a 96-well microtiter plate. Serial drug dilutions are added to the wells. Then 50 µl of trypanosome suspension (T. b. rhodesiense STIB 900) is added to each well and the plate incubated at 37°C under a 5% CO2 atmosphere for 72 hours. Alamar Blue (10 µl) is then added to each well and incubation continued for a further 2-4 hours. The plate is then read with a Millipore Cytofluor 2300 using an excitation wavelength of 530 nm and emission wavelength of 590 nm [Räz B, Iten M, Grether-Bühler Y, Kaminsky R, Brun R. Acta Trop., 1997, 68: 139-147]. Fluorescence development is expressed as percentage of the control, and IC50 values determined. Cytotoxicity is assessed using the same assay and L-6 cells.

The mark [3] stands for this setting: L6, L-6 cells, read-out: IC50 Cytox.
[4] abbreviates: Erythrocyte, K1 strain, infected human red blood cells, 48 hours drug exposure.

Where “and” joins values, the source holds several entries; their conditions need not be identical. Equal values may be shown once. Read-outs that look alike come from different tables or passages of the source.

What is called IC50 is the concentration that inhibits the measured activity by half.

Take `CCN(CC)CCCC(C)Nc1ccnc2cc(Cl)ccc12` (stereo not shown) [Chloroquine, reference compound]: the IC50 in the data set with L-6 cells (L6, read-out: IC50 Cytox) amounted to 188 µM; in data set [1] (K1, Erythrocyte, 48 h) it was 0.12 µM. For the same compound, the “MSD P. berghei” value with P. berghei ANKA strain (ip 4x10mg/kg) and in the data set on P. berghei ANKA strain (po 4x10mg/kg) was 20 days in each case. Further, the Activity % in the data set with P. berghei ANKA strain (ip 4x10mg/kg) and in the data set on P. berghei ANKA strain (po 4x10mg/kg) was 99.6% in each case.

As for `c1ccc([C@@H]2CC3(N4CCCC4)CNCC2[C@H](c2ccccc2)C3)cc1` (racemic) [Example 1, (6RS,9RS)-(±)-6,9-Diphenyl-1-pyrrolidino-3-azabicyclo[3.2.2]nonane], the IC50 is 1 µM in data set [2] (STIB 900, 72 hours incubation); 72.9 µM in the data set with L-6 cells (setting [3]); 0.095 µM in data set [1] (setting [4]). Moreover, the “MSD P. berghei” value in the data set with P. berghei ANKA strain (ip 4x10mg/kg) is 4 days; in the data set on P. berghei ANKA strain (ip 4x20mg/kg), 10 days; in the data set with P. berghei ANKA strain (ip 4x50mg/kg) it was 12.3 days and 15 days; in the data set on P. berghei ANKA strain (po 1x100mg/kg), 12 days; in the data set with P. berghei ANKA strain (po 1x200mg/kg), 16 days; in the data set with P. berghei ANKA strain (po 4x100mg/kg), 18.6 days. Also, the Activity % was 25.06% in the data set on P. berghei ANKA strain (ip 4x10mg/kg); 60.11% with P. berghei ANKA strain (ip 4x20mg/kg); 94.32% and 94.77% in the data set with P. berghei ANKA strain (ip 4x50mg/kg); 70.52% in the data set with P. berghei ANKA strain (po 1x100mg/kg); 66.13% with P. berghei ANKA strain (po 1x200mg/kg); 97.7% in the data set on P. berghei ANKA strain (po 4x100mg/kg). Also, the “side effects of the drug” value in the data set with P. berghei ANKA strain (po 1x200mg/kg) is “toxic”.

As for `Nc1nc(N)nc(Nc2ccc([As]3SCC(CO)S3)cc2)n1` (stereo not shown) [Melarsoprol], the IC50 was found to be 0.0039 µM in data set [2] (72 h) and 7.78 µM in the data set on L-6 cells (L6, read-out: IC50 Cytox).

Consider `C[C@@H]1CC[C@H]2[C@@H](C)C(=O)O[C@@H]3O[C@@]4(C)CC[C@@H]1[C@]32OO4` [Artemisinin], for which the IC50 in the data set on L-6 cells (setting [3]) turned out to be 450 µM; in data set [1] (setting [4]), 0.0064 µM.

On to `N=C(N)c1ccc(OCCCCCOc2ccc(C(=N)N)cc2)cc1` [Pentamidine], for which the IC50 in data set [2] (STIB 900, 72 hours incubation) was determined as 0.0075 µM; in the data set on L-6 cells (setting [3]), 4720 µM.

These data come from patent publication EP2301627A1, “Novel antimalarial 3-azabicyclo[3.2.2]nonane derivatives” (University of Graz, priority 2009, dated 2011).
